Data published in US7824661B2, “Technetium- and rhenium-bis(heteroaryl) complexes, and methods of use thereof” (priority 2002, dated 2010).

Assays:
[1] = Whole body biodistribution studies in rats; type: in vivo, Rats (Sprague Dawley, male)
Description: The animal care and use procedures were in accordance with the Guide for the Care and Use of Laboratory Animals and the Animal Welfare Act. The vertebrate animals in this research project were used to investigate the biodistribution and pharmacokinetics of the rotenone derivatives and determine uptake in the heart. Rats (Sprague Dawley, male, at 80-100 grams each) were used for the whole body biodistribution studies. The Tc-complexes, as well as Cardiolite™, were evaluated at three time points; 5, 30, and 120 minutes, with five animals per time point. In order to provide accurate statistics in the clearance rate measurements and to account for intra-species variation it was necessary to use this number of animals. The product was diluted to ˜10 μCi/100 μl using freshly prepared 10% ethanol/saline (0.9%) solution. The rats were injected via a lateral tail vein with a volume of 0.1 mL. The rats were sacrificed by decapitation, with immediate blood collection at the desired time points. Whole body biodistributions were performed on the animals immediately following decapitation, organ and tissue samples were taken and washed of excess blood, blotted dry and weighed. Radioactivity was assayed using automated Nal well counter. All tissue samples were counted together along with an aliquot of the injected dose so that % injected dose and % injected dose per gram of tissue could be calculated. […]

[2] = type: physicochemical
Description: The stability and robustness of the technetium-di(pyridine) complexes was assessed using challenges with free cysteine and histidine. Specifically, the experiments were performed using [^99mTc(CO)3(dipyridinemethylamine)]^+1.
This approach enables the creation of libraries containing the {M(CO)31}^1+ core. We have begun to define the biological fate of the ^99mTc-dipyridine complexes, allowing us to compare a series of future tridentate analogs. The dipyridine labeling proceeded in high yield and was stable to excess histidine and cysteine challenges for more than 18 hours. […] Activity decreased in all tissues as a function of time, except in the GI tract, which increased with time.
[^99mTc(CO)3(H2O)3]^+ was heated with [{N,N-di(pyridyl-2-methyl)}N-butyl-phthalimide in 0.5 mL (1 mg/mL) of methanol at 100° C. for 60 minutes. […] The product eluted with methanol at 20.8 minutes. The HPLC analysis was performed using a Supelco C18 column, 25 cm×4.6 mm column (5 μm pore size), equipped with 2 cm guard using solvent A=0.05 M triethylammonium phosphate buffer pH 2.5 and solvent B=methanol. The method employed was a gradient 5-95% B, 1 mL/minute for 30 minutes. The gradient ramped from 5-95 from 3-20 minutes.

| Substance | blood clearance, % ID/g ([1]; at 5 minutes) [% ID/g] | blood clearance, % ID/g ([1]; by 30 minutes) [% ID/g] | stability and robustness in challenges with free cysteine and histidine [2] | change in the components by HPLC analysis ([2]; aqueous solution of the complex incubated with cysteine for 18 hours at 37° C. at pH 7.4) |
| --- | --- | --- | --- | --- |
| [^99mTc(CO)3(DpK)] | 0.6 | 0.07 | – | – |
| [^99mTc(CO)3(dipyridinemethylamine)]^+1 | – | – | stable | no significant change |
